Data as given in patent US20200207744A1, “DIMER COMPOUNDS, AND USE IN BINDING TOXIC REPEATS OF RNA” (EXPANSION THERAPEUTICS, INC., priority 2018, published 2020).

Test system: r(CUG)12-MBNL1 complex
Test: Small molecule inhibition of the r(CUG)12-MBNL1 complex measured by TR-FRET
Assay type: binding
Settings: biotinylated r(CUG)12 80 nM, MBNL1-His6 60 nM
Experimental: Example 28: Small Molecule Inhibition of the r(CUG)12-MBNL1 Complex Measured by Time Resolved Fluorescence Resonance Energy Transfer (TR-FRET)
The in vitro activity of small molecules were assessed by measuring the inhibition of the r(CUG)12-MBNL1 complex using a TR-FRET assay previously reported by Chen et al Analytical and Bioanalytical Chemistry 2012, 402, 1889. Biotinylated r(CUG)12 was folded at 60° C. in 1× Folding Buffer (20 mM HEPES, pH 7.5, 100 mM KCl, and 10 mM NaCl) and slowly cooled to room temperature. The buffer was then adjusted to 1× TR-FRET Buffer (1× Folding Buffer supplemented with 2 mM MgCl2, 2 mM CaCl2, 5 mM DTT, 0.1% BSA, 0.05% Tween-20) and MBNL1-His6 was added. The final concentrations of RNA and MBNL1-His6 were 80 nM and 60 nM, respectively. Then dilutions of the small molecule were made in 1× TR-FRET buffer. The samples were equilibrated at room temperature for 15 min, after which 1 μL of antibody solution (1:1 mixture of 8.8 ng/μL Anti-His6-Tb and 800 nM streptavidin XL-665) was added. Samples were incubated at room temperature for 1 h, and then TR-FRET was measured using a Molecular Devices SpectraMax M5 plate reader using an excitation wavelength of 345 nm and a 420 nm cutoff. Controls for maximum TR-FRET (100% complex formation) contained 8 μL of 1× TR-FRET Buffer with RNA and protein and 1 μL water. Controls for minimum TR-FRET (no complex formation) contained 8 μL of 1× Assay Buffer, 1 μL water, and no RNA or protein.
To calculate the percent inhibition of complex formation, the ratio of fluorescence intensity at 545 nm and 665 nm in the presence of compound was compared to the ratio in the absence of small molecule (100% r(CUG)12-MBNL1 complex formation) and in the absence of RNA and protein (no complex formation). The resulting curves were fit to the following equation to determine IC50 values: […]
where y is ratio of fluorescence intensities at 545 nm and 665 nm (F545/F665), x is the concentration of small molecule, B is F545/F665 value at max FRET effect (solution has RNA and protein but no small molecule added); A is F545/F665 value at min FRET effect (solution has antibodies but no RNA, protein, or small molecule); and the IC50 is the concentration of small molecule where half of the protein is displaced by small molecule.

Compound | IC50 [µM]
CN(C)CCCOc1ccc2nc(-c3ccccc3OCCOCCOCCOc3ccccc3-c3nc4ccc(OCCCN(C)C)cc4[nH]3)[nH]c2c1 [Ex 14a, 3,3′-((2,2′-((((ethane-1,2-diylbis(oxy))bis(ethane-2,1-diyl))bis(oxy))bis(2,1-phenylene))bis(1H-benzo[d]imidazole-6,2-diyl))bis(oxy))bis(N,N-dimethylpropan-1-amine)] | 166
CN(C)CCCOc1ccc2nc(-c3ccc(-c4nc5ccc(OCCCN(C)C)cc5[nH]4)c(OCCCCCCCCCCCCOc4cc(-c5nc6ccc(OCCCN(C)C)cc6[nH]5)ccc4-c4nc5ccc(OCCCN(C)C)cc5[nH]4)c3)[nH]c2c1 [Ex 20, 3,3′,3″,3′″-((((dodecane-1,12-diylbis(oxy))bis(benzene-2,1,4-triyl))tetrakis(1H-benzo[d]imidazole-2,5-diyl))tetrakis(oxy))tetrakis(N,N-dimethylpropan-1-amine)] | 2.8
3,3′-((2,2′-(((oxybis(ethane-2,1-diyl))bis(oxy))bis(2,1-phenylene))bis(1H-benzo[d]imidazole-6,2-diyl))bis(oxy))bis(N,N-dimethylpropan-1-amine) [Ex 13] | 188
3,3′-((2,2′-(2-(3-((3-(2,5-bis(6-(3-(dimethylamino)propoxy)-1H-benzo[d]imidazol-2-yl)phenoxy)propyl)(methyl)amino)propoxy)-1,4-phenylene)bis(1H-benzo[d]imidazole-6,2-diyl))bis(oxy))bis(N,N-dimethylpropan-1-amine) [Ex 18] | 0.72
CN(C)CCCOc1ccc2nc(-c3ccccc3OCCOCCOCCOc3ccccc3-c3nc4ccc(O)cc4[nH]3)[nH]c2c1 [Ex 14b, 2-(2-(2-(2-(2-(2-(6-(3-(dimethylamino)propoxy)-1H-benzo[d]imidazole-2-yl)phenoxy)ethoxy)ethoxy)ethoxy)phenyl)-1H-benzo[d]imidazol-6-ol] | > 200
3,3′-((2,2′-((ethane-1,2-diylbis(oxy))bis(2,1-phenylene))bis(1H-benzo[d]imidazole-6,2-diyl))bis(oxy))bis(N,N-dimethylpropan-1-amine) [Ex 12] | > 200
